Experimental data taken from ChEMBL document CHEMBL5291721, “A preclinical secondary pharmacology resource illuminates target-adverse drug reaction associations of marketed drugs” (Nat Commun, 2023).

Tests used:
Adenosine receptor A3 = target: T1, Adenosine receptor A3 (Homo sapiens, UniProt P0DMS8)
T1 sequence (P0DMS8 whole entry): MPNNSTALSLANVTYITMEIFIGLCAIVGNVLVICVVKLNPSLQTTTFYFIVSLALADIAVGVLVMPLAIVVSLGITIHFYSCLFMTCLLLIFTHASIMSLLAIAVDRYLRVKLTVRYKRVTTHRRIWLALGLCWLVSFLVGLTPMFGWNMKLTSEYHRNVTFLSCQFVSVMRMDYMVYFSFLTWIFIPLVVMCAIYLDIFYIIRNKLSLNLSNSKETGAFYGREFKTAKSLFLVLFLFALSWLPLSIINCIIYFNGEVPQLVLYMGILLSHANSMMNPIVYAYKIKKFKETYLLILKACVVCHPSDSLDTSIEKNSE

Mu-type opioid receptor = Mu-type opioid receptor (Homo sapiens, UniProt P35372)
[1] = target: T2, Type-1 angiotensin II receptor (Homo sapiens, UniProt P30556)
T2 sequence (P30556 whole entry): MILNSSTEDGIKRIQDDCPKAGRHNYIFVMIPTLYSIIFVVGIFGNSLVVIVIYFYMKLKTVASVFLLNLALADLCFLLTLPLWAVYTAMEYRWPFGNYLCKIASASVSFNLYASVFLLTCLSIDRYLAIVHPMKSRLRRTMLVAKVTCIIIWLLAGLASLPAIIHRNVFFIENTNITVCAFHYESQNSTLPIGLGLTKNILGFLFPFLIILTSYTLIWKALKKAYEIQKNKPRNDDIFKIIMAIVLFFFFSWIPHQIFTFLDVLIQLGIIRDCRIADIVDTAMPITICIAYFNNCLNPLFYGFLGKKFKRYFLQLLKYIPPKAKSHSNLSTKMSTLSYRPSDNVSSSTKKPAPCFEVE

[2] = target: Delta-type opioid receptor (Homo sapiens, UniProt P41143)
[3] = target: Growth hormone secretagogue receptor type 1 (Homo sapiens, UniProt Q92847)
[4] = target: T3, Prostaglandin G/H synthase 1 (Rattus norvegicus, UniProt Q63921); assay type: functional
T3 sequence (Q63921 whole entry): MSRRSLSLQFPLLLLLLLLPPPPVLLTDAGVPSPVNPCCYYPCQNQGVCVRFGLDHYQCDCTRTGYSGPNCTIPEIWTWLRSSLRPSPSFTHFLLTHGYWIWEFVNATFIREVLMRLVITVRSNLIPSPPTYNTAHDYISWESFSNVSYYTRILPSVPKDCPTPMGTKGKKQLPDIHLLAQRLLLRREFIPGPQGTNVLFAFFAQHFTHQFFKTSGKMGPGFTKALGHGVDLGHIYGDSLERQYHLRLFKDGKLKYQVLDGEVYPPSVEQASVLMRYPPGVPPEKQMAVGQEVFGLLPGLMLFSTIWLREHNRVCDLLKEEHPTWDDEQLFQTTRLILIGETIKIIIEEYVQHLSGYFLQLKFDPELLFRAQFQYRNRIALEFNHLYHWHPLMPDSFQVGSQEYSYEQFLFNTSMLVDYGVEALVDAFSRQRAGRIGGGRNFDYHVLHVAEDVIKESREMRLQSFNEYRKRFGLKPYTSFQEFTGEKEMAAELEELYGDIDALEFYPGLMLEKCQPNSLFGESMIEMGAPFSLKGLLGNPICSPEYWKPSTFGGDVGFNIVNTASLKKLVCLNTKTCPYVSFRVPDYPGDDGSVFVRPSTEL

[5] = target: 5-hydroxytryptamine receptor 2B (Homo sapiens, UniProt P41595); assay type: functional, cell-based
[6] = target: T4, 5-hydroxytryptamine receptor 1A (Homo sapiens, UniProt P08908); assay type: functional, cell-based
T4 sequence (P08908 whole entry): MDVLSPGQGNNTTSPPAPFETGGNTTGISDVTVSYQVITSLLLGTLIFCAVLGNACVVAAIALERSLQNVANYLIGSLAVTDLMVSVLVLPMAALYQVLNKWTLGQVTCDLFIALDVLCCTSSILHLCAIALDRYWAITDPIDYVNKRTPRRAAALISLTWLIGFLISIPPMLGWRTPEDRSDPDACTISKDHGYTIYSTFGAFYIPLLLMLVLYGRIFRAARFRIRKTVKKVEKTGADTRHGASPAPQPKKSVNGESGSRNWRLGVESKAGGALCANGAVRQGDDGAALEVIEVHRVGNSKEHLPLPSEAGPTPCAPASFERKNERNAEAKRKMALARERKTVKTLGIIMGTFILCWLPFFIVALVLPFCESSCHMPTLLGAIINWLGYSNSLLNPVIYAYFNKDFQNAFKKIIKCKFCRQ
Also: assay procedure not described here.

Chain of 5-hydroxytryptamine receptor 2B (P41595 whole entry): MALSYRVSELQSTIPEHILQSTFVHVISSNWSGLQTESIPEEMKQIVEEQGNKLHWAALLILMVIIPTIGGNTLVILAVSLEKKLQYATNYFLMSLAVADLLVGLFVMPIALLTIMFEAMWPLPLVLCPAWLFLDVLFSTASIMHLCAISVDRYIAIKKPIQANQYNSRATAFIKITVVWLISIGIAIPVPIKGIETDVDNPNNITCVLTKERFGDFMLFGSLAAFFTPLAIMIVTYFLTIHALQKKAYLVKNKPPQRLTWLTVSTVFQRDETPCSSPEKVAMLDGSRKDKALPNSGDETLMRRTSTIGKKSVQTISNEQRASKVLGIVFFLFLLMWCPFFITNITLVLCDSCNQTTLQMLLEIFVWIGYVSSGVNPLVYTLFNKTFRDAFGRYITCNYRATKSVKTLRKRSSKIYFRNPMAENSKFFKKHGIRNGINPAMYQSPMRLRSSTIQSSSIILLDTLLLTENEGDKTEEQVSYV
Chain of Growth hormone secretagogue receptor type 1 (Q92847 whole entry): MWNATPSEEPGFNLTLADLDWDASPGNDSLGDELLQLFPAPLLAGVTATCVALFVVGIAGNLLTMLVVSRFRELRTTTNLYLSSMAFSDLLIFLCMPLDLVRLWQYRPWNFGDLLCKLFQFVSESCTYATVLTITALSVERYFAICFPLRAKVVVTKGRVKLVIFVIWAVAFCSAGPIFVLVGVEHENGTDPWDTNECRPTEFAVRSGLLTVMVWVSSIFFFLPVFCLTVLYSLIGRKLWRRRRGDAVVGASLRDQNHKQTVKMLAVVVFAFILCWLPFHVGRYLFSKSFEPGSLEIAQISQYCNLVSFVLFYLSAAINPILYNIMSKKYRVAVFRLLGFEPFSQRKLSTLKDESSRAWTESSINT
Chain of Mu-type opioid receptor (P35372 whole entry): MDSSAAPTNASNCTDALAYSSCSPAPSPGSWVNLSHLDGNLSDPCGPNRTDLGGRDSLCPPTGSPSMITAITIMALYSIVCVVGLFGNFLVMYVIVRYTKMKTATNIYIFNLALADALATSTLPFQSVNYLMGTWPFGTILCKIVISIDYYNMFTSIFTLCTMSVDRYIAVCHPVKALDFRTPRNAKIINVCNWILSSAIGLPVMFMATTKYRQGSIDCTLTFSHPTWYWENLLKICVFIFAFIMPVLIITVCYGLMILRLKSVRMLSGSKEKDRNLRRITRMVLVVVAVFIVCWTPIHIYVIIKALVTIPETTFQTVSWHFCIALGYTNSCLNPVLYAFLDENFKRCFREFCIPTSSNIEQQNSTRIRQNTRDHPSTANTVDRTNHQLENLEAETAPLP
Chain of Delta-type opioid receptor (P41143 whole entry): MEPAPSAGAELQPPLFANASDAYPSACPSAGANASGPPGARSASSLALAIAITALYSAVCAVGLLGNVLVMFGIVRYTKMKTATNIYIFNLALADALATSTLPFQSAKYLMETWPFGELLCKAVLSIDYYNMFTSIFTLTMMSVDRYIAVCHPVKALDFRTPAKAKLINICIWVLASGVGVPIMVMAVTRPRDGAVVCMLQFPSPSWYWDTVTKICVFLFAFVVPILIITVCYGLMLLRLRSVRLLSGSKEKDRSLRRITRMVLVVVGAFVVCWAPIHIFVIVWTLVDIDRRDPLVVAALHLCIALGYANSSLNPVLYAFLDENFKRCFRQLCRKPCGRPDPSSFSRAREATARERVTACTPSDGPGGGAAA

SMILES	AC50 (Adenosine receptor A3) [µM]	AC50 (Mu-type opioid receptor) [µM]	AC50 [1] [µM]	AC50 [2] [µM]	AC50 [3] [µM]	AC50 [4] [µM]	AC50 [5] [µM]	AC50 [6] [µM]
CC(=O)c1ccc2c(c1)N(CCCN1CCN(CCO)CC1)c1ccccc1S2 [ACETOPHENAZINE]	> 30	> 30	> 30	> 30	> 30	> 30	> 30	> 30
COC(=O)N[C@H](C(=O)N[C@@H](Cc1ccccc1)[C@@H](O)CN(Cc1ccc(-c2ccccn2)cc1)NC(=O)[C@@H](NC(=O)OC)C(C)(C)C)C(C)(C)C [ATAZANAVIR]	> 30	> 30	> 10	> 30	10.6	> 10	> 10	> 10
CC(C)NCC(O)COc1ccc(COCCOC(C)C)cc1 (configuration not stated) [BISOPROLOL]	> 30	> 10	> 30	> 10	> 30	> 30	> 10	> 10
CCC[C@@H]1C[C@@H](C(=O)N[C@@H]([C@H]2O[C@H](SC)[C@H](O)[C@@H](O)[C@H]2O)[C@H](C)Cl)N(C)C1 [CLINDAMYCIN]	> 30	> 30	> 30	> 30	> 30	> 30	> 10	> 10
O=C(O)c1cc(-c2ccc(F)cc2F)ccc1O [DIFLUNISAL]	> 10	> 30	> 10	> 30	> 10	> 10	> 10	> 10
COC(=O)[C@@H]1CC2=CC(=O)CC[C@]2(C)[C@@]23O[C@@H]2C[C@@]2(C)[C@@H](CC[C@@]24CCC(=O)O4)[C@H]13 [EPLERENONE]	> 30	> 30	> 30	> 30	> 30	> 30	> 30	> 30
NC(N)=Nc1nc(CSCCC(N)=NS(N)(=O)=O)cs1 [FAMOTIDINE]	> 30	> 10	> 30	> 10	> 30	> 30	> 10	> 10
C[C@@H]1O[C@@H]1P(=O)(O)O [FOSFOMYCIN]	> 10	> 30	> 10	> 30	> 10	> 10	> 10	> 10
NS(=O)(=O)c1cc2c(cc1Cl)NCNS2(=O)=O [HYDROCHLOROTHIAZIDE]	> 30	> 10	> 30	> 10	> 30	> 30	> 10	> 10
CC(C)Cc1ccc(CC(=O)O)cc1 [IBUFENAC]	> 30	> 30	> 30	> 30	> 30	> 30	> 30	> 30
CC(C)NNC(=O)c1ccncc1 [IPRONIAZID]	> 30	> 30	> 30	> 30	> 30	0.45	> 30	> 30
NC[C@H]1O[C@H](O[C@H]2[C@H](O)[C@@H](O[C@H]3O[C@H](CO)[C@@H](O)[C@H](N)[C@H]3O)[C@H](N)C[C@@H]2N)[C@H](O)[C@@H](O)[C@@H]1O [KANAMYCIN]	> 10	> 30	> 10	> 30	> 10	> 10	> 10	> 10
CN1C(=O)CC(C)(c2ccccc2)C1=O (configuration not stated) [METHSUXIMIDE]	> 10	> 30	> 10	> 30	> 10	> 10	> 10	> 10
C[C@H]1C[C@@H]2[C@H]([C@@H](O)C[C@@]3(C)[C@H]2CC[C@]3(O)C(=O)CO)[C@@]2(C)C=CC(=O)C=C12 [METHYLPREDNISOLONE]	> 10	> 30	> 10	> 30	> 10	> 10	> 10	> 10
CCN(CC)CCNC(=O)c1cc(Cl)c(N)cc1OC [METOCLOPRAMIDE]	> 30	> 30	> 30	> 30	> 30	> 30	> 10	> 10
CC(C)(C(=O)c1cccnc1)c1cccnc1 [METYRAPONE]	> 10	> 30	> 10	> 30	> 10	> 10	> 10	> 10
CCc1nn(CCCN2CCN(c3cccc(Cl)c3)CC2)c(=O)n1CCOc1ccccc1 [NEFAZODONE]	11.9	3.8	> 30	> 10	> 30	> 30	> 10	2
COC(=O)C1=C(C)NC(C)=C(C(=O)OCC(C)C)C1c1ccccc1[N+](=O)[O-] (configuration not stated) [NISOLDIPINE]	0.614	9.4	> 10	> 30	> 10	> 10	> 10	> 10
NC1=NC(=O)C(c2ccccc2)O1 (configuration not stated) [PEMOLINE]	> 30	> 30	> 30	> 30	> 30	> 30	> 10	> 10
CC[C@H](C)C(=O)O[C@H]1C[C@H](O)C=C2C=C[C@H](C)[C@H](CC[C@@H](O)C[C@@H](O)CC(=O)O)[C@H]21 [PRAVASTATIN]	> 30	> 30	> 30	> 30	> 30	> 30	> 30	> 30
CC(C(=O)O)c1ccc(C(=O)c2cccs2)cc1 (configuration not stated) [SUPROFEN]	> 10	> 30	> 10	> 30	> 10	0.284	> 10	> 10
Cc1ccc(C(=O)c2cc(O)c(O)c([N+](=O)[O-])c2)cc1 [TOLCAPONE]	11.9	> 30	> 10	> 30	> 10	12.7	> 10	> 10
NC[C@H]1CC[C@H](C(=O)O)CC1 [TRANEXAMIC ACID]	> 10	> 30	> 10	> 30	> 10	> 10	> 10	> 10
OCc1cc([C@@H](O)CNCCCCCCOCCOCc2c(Cl)cccc2Cl)ccc1O [VILANTEROL]	29	> 30	> 30	> 30	13	> 30	> 30	> 30
